Reference: patent US20240246931A1, “COMPOUNDS AS PD1/PD-L1 INHIBITORS AND METHODS THEREOF” (JUBILANT PRODEL LLC, priority 2021, published 2024)
Where a name gives a salt, the structure may show the parent alone.

Experiments:
[1] = molecular target: T1, PD-1/PD-L1 interaction (Homo sapiens, UniProt Q9NZQ7); assay: PD-1/PD-L1 HTRF binding assay (CisBio kit); details: HTRF PD1/PD-L1 inhibition assay
T1 construct: purchased CisBio 63ADK000CPAPEG
Procedure: PD-L1 Enzyme Assay: Homogenous Time-Resolved Fluorescence (HTRF) Binding Assay
All binding studies were performed using PD-1/PD-L1 Binding Assay Kit from CisBio (Catalog #63ADK000CPAPEG), according to the manufacturer's protocol. The interaction between Tag1-PD-1 and […] was detected by anti-Tag1-Eu^3+ (HTRF donor) and anti-Tag2-XL665 (HTRF acceptor). When the donor and acceptor antibodies were brought to close proximity due to PD-1 and PD-L1 binding, excitation of the donor antibody triggered fluorescent resonance energy transfer (FRET) towards the acceptor antibody, which in turn emitted specifically at 665 nm. This specific signal is positively proportional to PD-1/PD-L1 interaction. The compounds blocking PD-1/PD-L1 interaction will cause a reduction in HTRF signal. The necessary reagents were mixed in the following order: 2 μL compounds (or diluents buffer), 4 μL PD-L1 protein, 4 μL PD-1 protein. After an incubation of 15 minutes, 5 μL of anti-Tag1-Eu^3+ and 5 μL of anti-Tag2-XL665 were added. The plate was sealed and incubated at room temperature for 1 h. The fluorescence emission was read at two different wavelengths (665 nm and 620 nm) on a BMG PheraStar® multi-plate reader.
Results were calculated from the 665 nm and 620 nm fluorescence signal and expressed in HTRF ratio=(665 nm/620 nm)×10^4.
Compounds having IC50<100 nM are designated as “A”; 100-500 nM are designated as “B”; and >500 nM are designated as “C” respectively.

[2] = Metabolic stability in human liver microsomes; assay type: in vitro ADME; details: human liver microsomes 1.0 mg/mL, compound 1 μM, NADPH, first number of HLM/MLM cell
From the text: (§1) Metabolic Stability in Liver Microsomes
(§2) The purpose of this experiment is to measure the metabolic half-life of NCEs in sub-cellular fractions such as human liver microsomes (HLM) or mouse liver microsomes (MLM). This provides an in vitro means to calculate intrinsic hepatic clearance, and to support the prediction of human pharmacokinetics. This approach has been successfully utilized at early phase of drug discovery projects, to provide SAR input for reducing metabolic instability and for predicting in vivo hepatic clearance.
(§3) Procedure: Potassium phosphate buffer (66.7 mM, pH 7.4) containing liver microsomes (mouse and human) (1.0 mg/mL) was pre-incubated separately with compound (1 μM) and positive control (verapamil, 1 μM) in a 37° C. water bath for 5 min. The reactions were initiated by adding 20 μL of 10 mM NADPH. Reactions without NADPH (0 and 30 min) were also incubated to rule out non-NADPH metabolism or chemical instability in the incubation buffer. All reactions were terminated using 200 μL of ice-cold acetonitrile containing internal standard at 0, 5, 15 and 30 min. The vials were centrifuged at 3000 rpm for 15 min. The supernatants thus obtained were analyzed on LC-MS/MS to monitor the disappearance of test compound.

[3] = Metabolic stability in mouse liver microsomes; assay type: in vitro ADME; details: mouse liver microsomes 1.0 mg/mL, compound 1 μM, NADPH, second number of HLM/MLM cell
From the text: as §1, §2, §3

T1 sequence (Q9NZQ7 19-238 limits assumed): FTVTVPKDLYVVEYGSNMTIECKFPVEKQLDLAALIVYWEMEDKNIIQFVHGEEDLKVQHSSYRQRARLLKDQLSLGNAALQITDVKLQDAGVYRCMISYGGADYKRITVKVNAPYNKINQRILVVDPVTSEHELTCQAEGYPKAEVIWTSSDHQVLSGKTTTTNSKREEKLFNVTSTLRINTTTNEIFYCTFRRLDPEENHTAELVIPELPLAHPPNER

Compound | IC50 [1] [µM] | HLM % remaining @ 30 min [2] [%] | MLM % remaining @ 30 min [3] [%]
Cc1c(COc2cc(OCc3cncc(C#N)c3)c(CN3CCCC[C@H]3CO)c3c2CCC3)cccc1-c1ccccc1 [Example 1, (S)-5-(((4-((2-(hydroxymethyl)piperidin-1-yl)methyl)-7-((2-methyl-[1,1′-biphenyl]-3-yl)methoxy)-2,3-dihydro-1H-inden-5-yl)oxy)methyl)nicotinonitrile] | < 0.1 | 72 | 83
Cc1c(COc2cc(OCc3cccc(C#N)c3)c(CN3CCCC[C@H]3CO)c3c2CCC3)cccc1-c1ccccc1 [Example 2, (S)-3-(((4-((2-(hydroxymethyl)piperidin-1-yl)methyl)-7-((2-methyl-[1,1′-biphenyl]-3-yl)methoxy)-2,3-dihydro-1H-inden-5-yl)oxy)methyl)benzonitrile] | < 0.1 | 58 | 62
Cc1c(COc2cc(OCc3cncc(C#N)c3)c(CN3CCC3CO)c3c2CCC3)cccc1-c1ccc(N2CCOCC2)nc1 (stereo not drawn) [Example 61, 5-(((4-((2-(hydroxymethyl)azetidin-1-yl)methyl)-7-((2-methyl-3-(6-morpholinopyridin-3-yl)benzyl)oxy)-2,3-dihydro-1H-inden-5-yl)oxy)methyl)nicotinonitrile] | > 0.5 |  | 
COc1ccc(-c2cccc(COc3cc(OCc4cncc(C#N)c4)c(CN4CCC4CO)c4c3CCC4)c2C)cc1 (stereo not drawn) [Example 63, 5-(((4-((2-(hydroxymethyl)azetidin-1-yl)methyl)-7-((4′-methoxy-2-methyl-[1,1′-biphenyl]-3-yl)methoxy)-2,3-dihydro-1H-inden-5-yl)oxy)methyl)nicotinonitrile] | > 0.5 |  | 
COc1cccc(-c2cccc(COc3cc(OCc4cncc(C#N)c4)c(CN4CCC4CO)c4c3CCC4)c2C)c1 (stereo not drawn) [Example 65, 5-(((4-((2-(hydroxymethyl)azetidin-1-yl)methyl)-7-((3′-methoxy-2-methyl-[1,1′-biphenyl]-3-yl)methoxy)-2,3-dihydro-1H-inden-5-yl)oxy)methyl)nicotinonitrile] | < 0.1 |  | 
Cc1c(COc2cc(OCc3cncc(C#N)c3)c(CN3CCC3CO)c3c2CCC3)cccc1-c1ccc(OC(F)(F)F)cc1 (stereo not drawn) [Example 66, 5-(((4-((2-(hydroxymethyl)azetidin-1-yl)methyl)-7-((2-methyl-4′-(trifluoromethoxy)-[1,1′-biphenyl]-3-yl)methoxy)-2,3-dihydro-1H-inden-5-yl)oxy)methyl)nicotinonitrile] | > 0.5 |  | 
Cc1c(COc2cc(OCc3cncc(C#N)c3)c(CN3CCC3CO)c3c2CCC3)cccc1-c1cnn(C)c1 (stereo not drawn) [Example 68, 5-(((4-((2-(hydroxymethyl)azetidin-1-yl)methyl)-7-((2-methyl-3-(1-methyl-1H-pyrazol-4-yl)benzyl)oxy)-2,3-dihydro-1H-inden-5-yl)oxy)methyl)nicotinonitrile] | > 0.5 |  | 
Cc1c(COc2cc(OCc3cncc(C#N)c3)c(CN3CC[C@H]3CO)c3c2CCC3)cccc1-c1cnc2[nH]ccc2c1 [Example 72, (S)-5-(((4-((2-(hydroxymethyl)azetidin-1-yl)methyl)-7-((2-methyl-3-(1H-pyrrolo[2,3-b]pyridin-5-yl)benzyl)oxy)-2,3-dihydro-1H-inden-5-yl)oxy)methyl)nicotinonitrile] | 0.1 to 0.5 |  | 
Cc1ccc(-c2cccc(COc3cc(OCc4cncc(C#N)c4)c(CN4CCC4CO)c4c3CCC4)c2C)cc1 (stereo not drawn) [Example 73, 5-(((7-((2,4′-dimethyl-[1,1′-biphenyl]-3-yl)methoxy)-4-((2-(hydroxymethyl)azetidin-1-yl)methyl)-2,3-dihydro-1H-inden-5-yl)oxy)methyl)nicotinonitrile] | 0.1 to 0.5 |  | 
Cc1c(COc2cc(OCc3cncc(C#N)c3)c(CN3CCC3CO)c3c2CCC3)cccc1-c1cnc2[nH]ccc2c1 (stereo not drawn) [Example 74, 5-(((4-((2-(hydroxymethyl)azetidin-1-yl)methyl)-7-((2-methyl-3-(1H-pyrrolo[2,3-b]pyridin-5-yl)benzyl)oxy)-2,3-dihydro-1H-inden-5-yl)oxy)methyl)nicotinonitrile 2,2,2-trifluoroacetate] | > 0.5 |  | 
Cc1c(COc2cc(OCc3cncc(C#N)c3)c(CN3CCC3CO)c3c2CCC3)cccc1-c1ccc(C(C)(C)C)cc1 (stereo not drawn) [Example 75, 5-(((7-((4′-(tert-butyl)-2-methyl-[1,1′-biphenyl]-3-yl)methoxy)-4-((2-(hydroxymethyl)azetidin-1-yl)methyl)-2,3-dihydro-1H-inden-5-yl)oxy)methyl)nicotinonitrile] | > 0.5 |  | 
Cc1c(COc2cc(OCc3cncc(C#N)c3)c(CN3CCC3CO)c3c2CCC3)cccc1-c1ccc(F)cc1 (stereo not drawn) [Example 76, 5-(((7-((4′-fluoro-2-methyl-[1,1′-biphenyl]-3-yl)methoxy)-4-((2-(hydroxymethyl)azetidin-1-yl)methyl)-2,3-dihydro-1H-inden-5-yl)oxy)methyl)nicotinonitrile] | 0.1 to 0.5 |  | 
Cc1c(COc2cc(Oc3ccccc3)c(CN3CCC3CO)c3c2CCC3)cccc1-c1ccccc1 (stereo not drawn) [Example 78, (1-((7-((2-methyl-[1,1′-biphenyl]-3-yl)methoxy)-5-phenoxy-2,3-dihydro-1H-inden-4-yl)methyl)azetidin-2-yl)methanol] | > 0.5 |  | 
CNC(=O)NCC1CCCN1Cc1c(OCc2cncc(C#N)c2)cc(OCc2cccc(-c3ccccc3)c2C)c2c1CCC2 (stereo not drawn) [Example 80, 1-((1-((5-((5-cyanopyridin-3-yl)methoxy)-7-((2-methyl-[1,1′-biphenyl]-3-yl)methoxy)-2,3-dihydro-1H-inden-4-yl)methyl)pyrrolidin-2-yl)methyl)-3-methylurea formate] | < 0.1 |  | 

Results, then the compound that gave them:

IC50 [1] [µM] | HLM % remaining @ 30 min [2] [%] | MLM % remaining @ 30 min [3] [%] | Compound
< 0.1 |  |  | Cc1c(COc2cc(OCc3cncc(C#N)c3)c(CN3CCC3CO)c3c2CCC3)cccc1-c1ccccc1F (stereo not drawn) [Example 62, 5-(((7-((2′-fluoro-2-methyl-[1,1′-biphenyl]-3-yl)methoxy)-4-((2-(hydroxymethyl)azetidin-1-yl)methyl)-2,3-dihydro-1H-inden-5-yl)oxy)methyl)nicotinonitrile]
< 0.1 |  |  | Cc1c(COc2cc(OCc3cncc(C#N)c3)c(CN3CCC3CO)c3c2CCC3)cccc1-c1cccc(F)c1 (stereo not drawn) [Example 64, 5-(((7-((3′-fluoro-2-methyl-[1,1′-biphenyl]-3-yl)methoxy)-4-((2-(hydroxymethyl)azetidin-1-yl)methyl)-2,3-dihydro-1H-inden-5-yl)oxy)methyl)nicotinonitrile]
< 0.1 |  |  | Cc1c(COc2cc(OCc3cncc(C#N)c3)c(CN3CCC3CO)c3c2CCC3)cccc1-c1cccc(O)c1 (stereo not drawn) [Example 67, 5-(((7-((3′-hydroxy-2-methyl-[1,1′-biphenyl]-3-yl)methoxy)-4-((2-(hydroxymethyl)azetidin-1-yl)methyl)-2,3-dihydro-1H-inden-5-yl)oxy)methyl)nicotinonitrile]
> 0.5 |  |  | Cc1c(COc2cc(OCc3cncc(C#N)c3)c(CN3CCC3CO)c3c2CCC3)cccc1-c1cccc2cccnc12 (stereo not drawn) [Example 69, 5-(((4-((2-(hydroxymethyl)azetidin-1-yl)methyl)-7-((2-methyl-3-(quinolin-8-yl)benzyl)oxy)-2,3-dihydro-1H-inden-5-yl)oxy)methyl)nicotinonitrile]
> 0.5 |  |  | Cc1c(COc2cc(OCc3cncc(C#N)c3)c(CN3CCC3CO)c3c2CCC3)cccc1-c1ccncc1 (stereo not drawn) [Example 70, 5-(((4-((2-(hydroxymethyl)azetidin-1-yl)methyl)-7-((2-methyl-3-(pyridin-4-yl)benzyl)oxy)-2,3-dihydro-1H-inden-5-yl)oxy)methyl)nicotinonitrile]
0.1 to 0.5 |  |  | Cc1c(COc2cc(OCc3cncc(C#N)c3)c(CN3CCC3CO)c3c2CCC3)cccc1-c1cccnc1 (stereo not drawn) [Example 71, 5-(((4-((2-(hydroxymethyl)azetidin-1-yl)methyl)-7-((2-methyl-3-(pyridin-3-yl)benzyl)oxy)-2,3-dihydro-1H-inden-5-yl)oxy)methyl)nicotinonitrile]
